Data taken from patent US10039729B2, “Use of kukoamine A and kukoamine B” (Tianjin Chase Sun Pharmaceutical Co., Ltd., priority 2010, dated 2018).

Experiments:
[1] = Neutralization of LPS in vitro (TAL / kinetic turbidimetric limulus test); assay type: biochemical; settings: for neutralizing activity with LPS: 1, 2 and 4 μg/ml with equal volume of LPS (2.0 ng/ml), 30 min, p<0.05 or p<0.01, dose-dependent; for IC50: LPS 2 ng/ml, 0.5-128 μM, read-out: Half inhibitory concentration (IC50) on LPS
Experimental: 2.3.1 Methods: CL-4b was dissolved into LPS-free water to make 8 μg/ml solution, and incubated with equal volume of LPS (1 ng/mL) at 37° C. for 30 min. Subsequently, 100 μl mixed solution of CL-4b and LPS was added with equal volume of the quantitative TAL reagents dissolved in LPS-free water, gently shaked to mix the contents, and reacted at 37° C. for 60 min in kinetic tube reader. The agglutination of TAL reagent induced by the existence of non-neutralized LPS was measured. The mixture of LPS and equal volume of LPS-free water act as positive control. Each group contained three repeated tubes. The result was expressed in EU/ml, the endotoxin unit of LPS. Operation was performed according to the manufacturer's instructions of EDS-99 Bacterial Endotoxin Detecting system.
4.1 Methods: KA and KB (1, 2 and 4 μg/ml) were separately mixed with equal volume of LPS (2.0 ng/ml) and pre-incubated at 37 for 30 min; LPS control group was added with equal volume of nonpyrogenic water; LPS value was detected by kinetic turbidimetric limulus test after incubation; detection of each concentration was repeated three times; LPS content was expressed by means of mean±standard deviation; operation was performed according to the manufacturer's instructions of EDS-99 Bacterial Endotoxin Detecting system.
11.1 Methods: KB and PMB were separately diluted with LPS-free water to make solutions of 0.5, 1, 2, 4, 8, 16, 32, 64 and 128 μM; according to the methods in embodiment 4, above solutions were separately mixed with equal volume of LPS (2 ng/ml), and neutralizing activity was assayed.

RAW264.7 cells = assay: Release of TNF-α and IL-6 in RAW264.7 cells induced by LPS and CpG DNA (ELISA); assay type: cell-based, murine; settings: for release of TNF-α induced by CpG DNA / release of TNF-α induced by LPS: 0, 50 and 100 ng/ml, 4 h, p<0.01
Experimental: 6.1 Methods: RAW264.7 cells were diluted to 1×10^6/ml in DMEM supplemented with 10% (v/v) NCS, added into 96-well plates (200 μl per well), and cultured at 37° C. in a 5% CO2 humidified incubator for 4 h until cells adhere to the wall; culture medium were replaced with fresh culture medium, added with KA and KB (final concentrations of 0, 50 and 100 ng/ml), and added with LPS (final concentration of 100 ng/ml) and CpG DNA (final concentration of 10 μg/ml); at the same time, medium group without any reagent was established; subsequently, RAW264.7 cells were incubated for 4 h; and the supernatant was collected for further detection; detection of the TNF-α concentration was performed according to the manufacturer's instructions of ELISA kit. Result was expressed by means of mean±standard deviation.
12.1 Methods: According to the method in embodiment 6, KB was dissolved in DMEM supplemented with 10% (v/v) NCS, subsequently transferred into Culture medium of RAW264.7 cells to achieved final concentrations of 100 and 200 μM, added with LPS (final concentration of 100 ng/ml) and CpG DNA (final concentration of 10 μg/ml), incubated for 24 h, and then collected supernatant; the concentration of TNF-α and IL-6 of each group was detected according to the manufacturer's instructions of ELISA kit; result was expressed by means of mean±standard deviation.
13.1 Methods: According to the method in embodiment 6, KB and PMB were separately dissolved in DMEM supplemented with 10% (v/v) NCS, subsequently transferred into culture medium of RAW264.7 cells to achieved final concentrations of 50, 100 and 200 μM, and then added with LPS (final concentration of 100 ng/ml) and CpG DNA (final concentration of 10 μg/ml); RAW264.7 cells continued to be incubated; the supernatant were collected four hours later for TNF-α detection; the supernatant were collected 12 hours later for IL-6 detection; the concentration of TNF-α and IL-6 of each group was detected according to the manufacturer's instructions of ELISA kit; result was expressed by means of mean±standard deviation.
17.1 Methods: RAW264.7 cells was diluted to 1×10^6/ml in DMEM supplemented with 10% (v/v) NCS, transferred into 96-well plates (200 μl per well) and cultured at 37° C. in a 5% CO2 humidified incubator for 4 h.
(1) Observation of dose-dependent effects: For the purpose of experiment a medium group and a KB treatment group were established; each group included three repeated wells; medium group was added with no reagent; KB treatment group was added with KB (final concentrations of 12.5, 25, 50, 100 and 200 μM) in each well, and subsequently added with LPS (final concentration of 100 ng/ml) or CpG DNA (final concentration of 10 μg/ml); cells were cultured at 37° C. in a 5% CO2 humidified incubator for 12 h; the supernatant was collected for further detection; operations were performed according to the manufacturer's instructions of ELISA kit, and the result was expressed by means of mean±standard deviation.
(2) Observation of time-dependent effects: For the purpose of experiment a medium group, a stimulation group and a KB treatment group were established; each group contained three repeated wells; medium group was added with no reagent; stimulation group was added with LPS and CpG DNA; KB treatment group was added with LPS and CpG DNA, in the meantime added with KB (final concentration of 200 μM); cells continued to be cultured at 37° C. in a 5% CO2 humidified incubator; the supernatant at time point of 0, 2, 4, 8, 12 and 24 h after stimulation was separately collected for further detection; detection of TNF-α concentration was performed according to the manufacturer's instructions of ELISA kit, and the result was expressed by means of mean±standard deviation.
18.1 Methods: RAW264.7 cells were diluted to 1×10^6/ml in DMEM supplemented with 10% (v/v) NCS, transferred into 96-well plates (200 μl per well) and cultured at 37° C. in a 5% CO2 humidified incubator for 4 h. […]

[2] = CpG DNA 10 μg/ml, dose-dependent
[3] = 50, 100 and 200 μM, CpG DNA 10 μg/ml, TNF-α at 4 h, IL-6 at 12 h
[4] = 50, 100 and 200 μM, LPS 100 ng/ml, TNF-α at 4 h, IL-6 at 12 h

Row | Compound | neutralizing activity with LPS [1] | release of TNF-α induced by CpG DNA (RAW264.7 cells; [2]) | release of TNF-α induced by LPS (RAW264.7 cells; LPS 100 ng/ml, dose-dependent) | IC50 [1] | release of TNF-α and IL-6 induced by CpG DNA (RAW264.7 cells; [3]) | release of TNF-α and IL-6 induced by LPS (RAW264.7 cells; [4]) | release of TNF-α and IL-6 induced by CpG DNA (RAW264.7 cells; 100 and 200 μM, CpG DNA 10 μg/ml, 24 h) | release of TNF-α and IL-6 induced by LPS (RAW264.7 cells; 100 and 200 μM, LPS 100 ng/ml, 24 h) | difference of RAW264.7 cells activation (TNF-α release) vs CpG DNA group (RAW264.7 cells; KB 12.5 μM, CpG DNA 10 μg/ml, 12 h, p>0.05) | difference of RAW264.7 cells activation (TNF-α release) vs LPS group (RAW264.7 cells; KB 12.5 μM, LPS 100 ng/ml, 12 h, p>0.05) | inhibitory activity on TNF-α release induced by CpG DNA (RAW264.7 cells; KB 25 μM and above, CpG DNA 10 μg/ml, 12 h, p<0.05 or p<0.01, dose-dependent) | inhibitory activity on TNF-α release induced by LPS (RAW264.7 cells; KB 25 μM and above, LPS 100 ng/ml, 12 h, p<0.05 or p<0.01) | TNF-α release, KB added before vs at the time of stimulation (RAW264.7 cells; KB 200 μM added 40 or 20 min before vs at 0 min, LPS 200 ng/ml or CpG DNA 20 μg/ml) | TNF-α levels in supernatant at various time points, CpG DNA (RAW264.7 cells; KB 200 μM, CpG DNA 10 μg/ml, 0, 2, 4, 8, 12 and 24 h) | release of TNF-α and IL-6 induced by LPS and CpG DNA (RAW264.7 cells; KB 200 μM, LPS 100 ng/ml, CpG DNA 10 μg/ml, selectivity panel) | TNF-α levels in supernatant at various time points, LPS (RAW264.7 cells; KB 200 μM, LPS 100 ng/ml, 0, 2, 4, 8, 12 and 24 h) | antagonistic effect on other irritant (Pam3CSK4, Poly I:C, TNF-α, IL-1β) (RAW264.7 cells; KB 200 μM, Pam3CSK4 10 μg/ml, Poly I:C 20 μg/ml, TNF-α 50 ng/ml, IL-1β 50 ng/ml) | release of TNF-α induced by LPS and CpG DNA under serum-free conditions (RAW264.7 cells; KB 50, 100 and 200 μM, serum-free DMEM, 12 h, dose-dependant) | inhibition on TNF-α release induced by LPS and CpG DNA, KB preincubated with stimulus (RAW264.7 cells; KB preincubated with LPS or CpG DNA for 20 min or 40 min before loading, 12 h)
1 | O=C(CCc1ccc(O)c(O)c1)NCCCNCCCCNCCCNC(=O)CCc1ccc(O)c(O)c1 [KA, Kukoamine A] | significant neutralizing activity | inhibit the release of TNF-α | inhibit the release of TNF-α |  |  |  |  |  |  |  |  |  |  |  |  |  |  |  | 
2 | NCCCN(CCCCNCCCNC(=O)CCc1ccc(O)c(O)c1)C(=O)CCc1ccc(O)c(O)c1 [KB, Kukoamine B] | significant neutralizing activity | inhibit the release of TNF-α | inhibit the release of TNF-α | 14.9 µM | inhibit the release of TNF-α and IL-6 | inhibit the release of TNF-α and IL-6 | inhibit the release of TNF-α and IL-6 | inhibit the release of TNF-α and IL-6 | no statistic significance | no statistic significance | significantly increased | significantly increased | no significant difference | all decreased | can only inhibit the release of TNF-α and IL-6 induced by LPS and CpG DNA | all decreased | no antagonistic effect on other irritant | still inhibit the release of TNF-α | significantly enhanced
3 | polymyxin B [PMB, reference compound] |  |  |  | 4.8 µM | can only inhibit the release of TNF-α and IL-6 induced by LPS | inhibit the release of TNF-α and IL-6 |  |  |  |  |  |  |  |  |  |  |  |  | 
